Legend:
[1] = biological target: T1, PCTP START domain (GSV-PCTP) (Homo sapiens, UniProt Q9UKL6); assay: IgG-bead immunoisolation from yeast lysate, LC-MS of bound metabolites; format: binding; details: endogenous yeast metabolite, enriched over GV control
T1 sequence (Q9UKL6 1-212 limits assumed): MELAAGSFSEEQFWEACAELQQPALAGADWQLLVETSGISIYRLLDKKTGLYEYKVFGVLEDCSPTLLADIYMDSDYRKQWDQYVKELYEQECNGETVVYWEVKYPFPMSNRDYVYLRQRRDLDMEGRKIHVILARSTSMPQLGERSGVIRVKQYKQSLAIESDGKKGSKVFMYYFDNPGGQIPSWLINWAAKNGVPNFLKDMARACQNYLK

[2] = biological target: T2, StAR START domain (GSV-StAR) (Mus musculus, UniProt P51557); assay: as above; format: binding; details: endogenous yeast metabolite, enriched over GV control
T2 sequence (P51557 66-274 limits assumed): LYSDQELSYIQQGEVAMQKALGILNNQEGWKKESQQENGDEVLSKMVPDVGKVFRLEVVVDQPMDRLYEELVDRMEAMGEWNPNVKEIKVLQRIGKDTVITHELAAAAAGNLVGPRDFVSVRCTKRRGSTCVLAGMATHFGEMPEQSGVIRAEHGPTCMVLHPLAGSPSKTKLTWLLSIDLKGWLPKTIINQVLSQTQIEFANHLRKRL

SMILES | IgG-bead immunoisolation from yeast lysate, LC-MS of bound metabolites [1] | IgG-bead immunoisolation from yeast lysate, LC-MS of bound metabolites [2]
CCCCC/C=C\C/C=C\CCCCCCCC(N)=O [linoleamide] | lipids including sphinganine, sphingosine, behenic acid and linoleamide | 
CC(C)=CCC[C@@H](C)[C@H]1CC[C@@]2(C)C3=C(CC[C@]12C)[C@@]1(C)CC[C@H](O)C(C)(C)[C@@H]1CC3 [lanosterol] | several metabolites that were shared with StAR (e.g. lanosterol, squalene | lanosterol and squalene, were also significantly enriched for the START domain from StAR
CC(C)=CCC/C(C)=C/CC/C(C)=C/CC/C=C(\C)CC/C=C(\C)CCC=C(C)C [squalene] | several metabolites that were shared with StAR (e.g. lanosterol, squalene | lanosterol and squalene, were also significantly enriched for the START domain from StAR

Reference: paper PMC4169639 (BMC Biology, 2014)
